Reference: patent publication US11332483B2, “Naphthoquinone containing gold carbene complexes and methods of uses thereof” (BOARD OF REGENTS, THE UNIVERSITY OF TEXAS SYSTEM, priority 2017, dated 2022)

How the values were obtained:
A549 lung cancer cells = assay: ICP-MS detection of intracellular Au (cellular uptake); conditions: A549 cells, in words
Method: Roughly 7−8×10^6 cells were grown to 70-80% confluence in T-75 cell culture flasks (Thermo 130190) and treated with respective compound in RPMI medium supplemented with 10% FBS and antibiotics for the desired incubation time. The medium was then removed and cells were washed with 8 mL 1× warm PBS. 2 mL 1×PBS was then added to each flask, and the cells were removed by scraping. Each cell suspension was then pipetted into a clean, labeled 15 mL centrifuge tube (Thermo 339650). Cells were pelleted by centrifuging at 1,000 rpm for 5 min in an Eppendorf 5804 with a swing-bucket rotor. The supernatant was removed by vacuum aspiration, and the pellet was resuspended in 50 μL autoclaved deionized water. Suspension/lysates were then kept at −80° C. until further use. After thawing, the lysates were then sonicated using a Branson Digital Sonifier, and 5 μL aliquots were taken for determination of protein content of the sample. Lysates were digested with 80 μL aqua regia and heated to 65° C. for 1 h. Digested lysates were diluted with 4 mL 3% Trace Metal Grade HCl and gold content was measured on a Perkin Elmer NexION 300× set to detect gold at 197 m/z. Gold concentrations were quantified using the linear range of a standard curve generated by serial dilution of an ICP-MS gold standard (Ricca MSAU1KH-100) in 3% HCl. Values were then normalized to protein content as determined using a Modified Lowry Protein Assay Kit (Thermo 23240) and known concentrations of bovine serum albumin (Fisher 9048-46-8).
The Modified Lowry Assay was used to determine the protein content of each sample for normalization purposes. The standard curve for each run was made from a 2-fold serial dilution of fresh 5 mg/mL BSA solution. Aliquots were diluted to within the linear range of the standard curve using autoclaved DI water, and subjected to the Modified Lowry Assay in round-bottomed 96-well clear plates (Fisher 12565500). […] All other aspects of the procedure were as detailed in the microplate procedure instructions that come with the kit.

[1] = test system: fetal bovine serum proteins
Method: To assess potential drug protein interactions, samples of fetal bovine serum (FBS) were treated with 25 μM 1, 3, and auranofin prior to incubating at 37° C. Aliquots were taken and the free Au (non-protein bound, methanolic extracts) content was analyzed by ICP-MS (FIG. 3B).
A 25 μM solution of each compound in 3 mL warm FBS was made. The solutions were kept at 37° C. Over time, 100 μL aliquots of each solution were taken and precipitated into 400 μL cold methanol. Precipitated aliquots were stored at −80° C. The methanolic suspensions were then centrifuged at 11,000 rcf for 5 min in an Edvotek microcentrifuge. The supernatants were pipetted into new microcentrifuge tubes. Samples were prepared for ICP-MS by adding 200 μL supernatant from each sample to 2 mL 3% Trace Metal Grade HCl. Time points were at addition of compound (T0), 4, 6.25, 9.75, 12, 24, 48, 72, and 100 h.

[2] = Electrochemical analysis (differential pulse voltammetry) in DMSO; format: physicochemical; conditions: 0.1M [N(nBu)4][PF6], 0.1 mM analyte, vs SCE
Method: [Cl] (Guth et al., 2011; Gómez et al., 2003).
1,3-Dimesitylnapthoquinimidazolium chloride (Sanderson et al., 2006; Tennyson et al., 2010), (1,3-dimesityl-4,5-naphthoquino-imidazol-2-ylidene)-silver(I) chloride (Sanderson et al., 2006; Tennyson et al., 2010), (C4H2S)AuCl (Hashmi, et al., 2010) were prepared according to the literature procedures. All other reagents were purchased from commercial sources and used as received, including: [((CH3)3Si)2N]Na (NaHMDS) and silver(I) oxide. CD2Cl2 (99.9%) was purchased from Acros Laboratories in glass ampules and used as received. Solvents were either dried with a solvent purification system from the Inert Innovative Technology, Inc. (dichloromethane, diethyl ether, hexanes, tetrahydrofuran and toluene) or freshly distilled over 3 Å molecular sieves and degassed using three consecutive freeze-pump-thaw cycles prior to use. UV-vis spectra were obtained at ambient temperature with a Hewlett-Packard 8452A diode array spectrophotometer with molar absorptivities reported in M^−1 cm^−1. ^1H and ^13C NMR spectra were recorded on Bruker 300 MHz spectrometer. Spectra were referenced to the residual solvent as an internal standard, for ^1H NMR: CD2Cl2, 5.32 ppm and ^13C NMR: CD2Cl2, 53.84 ppm. High-resolution mass spectra (HRMS) were obtained with an Agilent Technologies 6530 Accurate Mass Q-TOF LC/MS (ESI) and are reported as m/z (relative intensity). Electroanalytical measurements were performed on a CHI620E electrochemical workstation using a silver wire quasi-reference electrode, a platinum disk working electrode and a Pt wire auxiliary electrode in a three-electrode cell under an atmosphere of nitrogen. […] All potentials listed herein were determined by differential pulse voltammetry and referenced to a saturated calomel electrode (SCE) by shifting ferrocene^0/+ to 0.435 V (DMSO) (Aranzaes et al., 2006). Spectroelectrochemistry measurements were obtained at ambient temperature with a custom designed three-electrode cell using Hewlett-Packard 8452A diode array spectrophotometer and CHI620E. Elemental analyses were performed by Midwest Microlab, LLC in Indianapolis, Ind. […] Trypsin (Hyclone SH30236.01) and Dulbecco's Phosphate Buffer Saline (Sigma R5886) were used for general cell maintenance and harvesting. Cell lines were obtained from the ATCC (A549 and PC-3) and Prof. Zahid Siddik at MD Anderson (A2780 and A2780CP). Thiazolyl blue tetrazolium bromide (Alfa Aesar L11939) was used for cell proliferation assays. Cell culture plastic ware consisted of generic T-75 flasks, 80.5 mm diameter culture dishes, and treated 96-well plates.

A549 cells = assay: Detection of intracellular ROS by flow cytometry (CM-H2DCFDA); format: cell-based, human; conditions: A549, 2.5 μM, 6 h incubation
Method: To establish whether or not the complexes of this disclosure would increase intracellular ROS levels, A549 cells were treated with each complex in a dose responsive manner.
Tumor cells (1×10^6) were plated in a 6-well plate overnight and then incubated with media containing various complexes described at concentrations of 0.625-2.5 μM. Control cells were treated with vehicle only. After a 6 h. incubation, the cells were washed with PBS, detached with 0.250 mL 1× trypsin, collected in a 15 mL conical tube, and pelleted by centrifugation (3 min @ 300 g) at 5° C. The resulting pellet was again washed 2× with cold PBS and pelleted at 5° C. […] The cells were then pelleted, washed with 2 mL PBS, and re-suspended in PBS containing 2 μg/mL propidium iodide (PI, Chemodex P0023) for a final cell concentration of 0.5×10^6 cells/mL. Control samples of unstained cells, cells stained with only CM-H2DCFDA, and cells stained with only PI were also prepared. Each sample was added to one well of a 96-well plate. Samples were then subjected to FACS analysis using a Millipore Guava easyCyte 8 and analyzed using the Guava inCyte software.

Structure (SMILES): Cc1cc(C)c(-n2c3c([n+](-c4c(C)cc(C)cc4C)[c]2[Au-][c]2n(-c4c(C)cc(C)cc4C)c4c([n+]2-c2c(C)cc(C)cc2C)C(=O)c2ccccc2C4=O)C(=O)c2ccccc2C3=O)c(C)c1.[Cl][Ag-][Cl] [Compound 1, [Bis(1,3-dimesityl-4,5-naphthoquino-imidazol-2-ylidene)-gold(I)] [Silver(I)dichloride]]
- intracellular Au levels (ICP-MS) (A549 lung cancer cells): identical
- free Au (non-protein bound) content as a function of time [1]: minimal changes in the free Au levels
- E1/2 (V) DPV, first reduction, formation of semiquinone radical [2]: −0.42 V
- E1/2^b (V) DPV, second reduction, formation of quinone dianion [2]: −1.31 V
- fluorescence associated cell population shift (intracellular ROS increase) (A549 cells): 27 fold
